# Measured values reported in patent US9637473B2, “Acrylamide derivatives as antimalarial agents” (priority 2013, dated 2017).
# Structures can show the parent of a compound that is named as a salt.
# System: P. Falciparum NF54
# Test: Plasmodium falciparum in vitro assay ([3H]-hypoxanthine incorporation)
# Type: cell-based
# Details: Plasmodium falciparum, Erythrocyte, P. Falciparum NF54, erythrocytic stages in human red blood cells, 50% human serum
# Procedure, shortened: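 This in vitro antimalarial assay used P. falciparum erythrocytic stages cultured in human erythrocytes and measured [3H]-hypoxanthine incorporation. Radioactivity on the dried filters, placed in plastic foil with 10 mL scintillation fluid, was counted in a Betaplate liquid scintillation counter. Sigmoidal inhibition curves built in Microsoft Excel gave the IC50.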
row,IC50,Structure (SMILES)
1,134 nM,"Cc1cc(Nc2ccc(CN(C(=O)/C=C/c3ccc(Cl)cc3)C3CCN(C4CCCC4)CC3)nc2)ccn1 [Example 171, (E)-3-(4-Chloro-phenyl)-N-(1-cyclopentyl-piperidin-4-yl)-N-[5-(2-methyl-pyridin-4-ylamino)-pyridin-2-ylmethyl]-acrylamide]"
2,328 nM,"Cc1ncc(CN2CCC(N(Cc3ccc(N(C)c4ccncc4)cc3)C(=O)/C=C/c3ccc(C(F)(F)F)cc3)CC2)cn1 [Example 24, (E)-N-[4-(Methyl-pyridin-4-yl-amino)-benzyl]-N-[1-(2-methyl-pyrimidin-5-ylmethyl)-piperidin-4-yl]-3-(4-trifluoromethyl-phenyl)-acrylamide]"
3,67 nM,"Cc1cc(Nc2ccc(CN(C(=O)/C=C/c3ccc(C(F)(F)F)cc3)C3CCN(C4CCCC4)CC3)nc2)ccn1 [Example 170, (E)-N-(1-Cyclopentyl-piperidin-4-yl)-N-[5-(2-methyl-pyridin-4-ylamino)-pyridin-2-ylmethyl]-3-(4-trifluoromethyl-phenyl)-acrylamide]"
4,82 nM,"CC(C)N1CCC(N(Cc2cncc(Nc3ccncc3)c2)C(=O)/C=C/c2ccc(C(F)(F)F)cc2)CC1 [Example 141, (E)-N-(1-Isopropyl-piperidin-4-yl)-N-[5-(pyridin-4-ylamino)-pyridin-3-ylmethyl]-3-(4-trifluoromethyl-phenyl)-acrylamide formate]"
